We go through 21 compounds from patent US20240150293A1, “SPIROCYCLOHEXANE DERIVATIVES, PHARMACEUTICAL COMPOSITIONS CONTAINING THEM AND THEIR USES AS ANTI-APOPTOTIC INHIBITORS” (LES LABORATOIRES SERVIER, priority 2021, published 2024).

Experiment [1] has as its target Cy5-labelled Mcl1 (amino acids 171-321) C286S protein (UniProtKB Q07820) (Homo sapiens (Human), UniProt Q07820, C286S). Description: Inhibition of Mcl-1 by the fluorescence quenching assay (Example A, Method B). It is filed as binding. The method in brief:
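Eleven-point compound series incubated 2 h at room temperature with 1 nM Cy5-tagged protein and quencher-labelled PUMA peptide at 10, 20 or 400 nM in HEPES/NaCl/Tween 20, pH 7.4, 5% DMSO. IC50 for 50% fluorescence increase by 4-parameter fit, then Ki derived (complete cKi or estimated eKi).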

The subject of experiment [2] is H929 multiple myeloma tumor line. Description: In vitro cytotoxicity, MTT assay (Example B, Method A). It is filed as cell-based. Particulars: H929 cells, 48 hours exposure, read-out: C50. How it is done: The cytotoxicity studies were carried out on the H929 multiple myeloma tumor line.
The cells are distributed onto microplates and exposed to the test compounds for 48 hours. The cell viability is then quantified by a colorimetric assay, the Microculture Tetrazolium Assay (Carmichael et al, Cancer Res. 1987, 47, 939-942).
The results are expressed in C50 which means concentration corresponding to […] of effect/inhibition.
Background: Tetrazolium assays rely on reduction of a dye to a coloured formazan, in cell work by metabolically active cells.

Like-named read-outs stand apart in the source and are kept apart here.

Chain of Cy5-labelled Mcl1 (amino acids 171-321) C286S protein (Q07820 171-321 C286S): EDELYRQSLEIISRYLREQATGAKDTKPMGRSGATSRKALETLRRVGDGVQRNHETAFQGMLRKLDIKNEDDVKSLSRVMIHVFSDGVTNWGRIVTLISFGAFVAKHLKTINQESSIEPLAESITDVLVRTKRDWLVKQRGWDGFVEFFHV

On to `C[C@@H](COc1ccnc2c1[C@H](C)CC[C@H]2C)C[C@H]1Cc2ccccc2[C@]12CC[C@@](Nc1cccc(Cl)c1)(C(=O)O)CC2` [Example 660, (1r,2′S,4S)-4-(3-chloroanilino)-2′-[(2R)-3-{[(5R,8R)-5,8-dimethyl-5,6,7,8-tetrahydroquinolin-4-yl]oxy}-2-methylpropyl]-2′,3′-dihydrospiro[cyclohexane-1,1′-indene]-4-carboxylic acid], for which, in experiment [1], the Ki stood at 1.39 nM. In experiment [2] (Homo sapiens, NCI-H929, 48 h), the IC50 worked out at 62 nM.

On to `C[C@@H](COc1ccnc2c1CCC[C@H]2F)C[C@H]1Cc2ccccc2[C@]12CC[C@@](Nc1cccc(Cl)c1)(C(=O)O)CC2` [Example 681, (1r,2′S,4S)-4-(3-chloroanilino)-2′-[(2R)-3-{[(8R)-8-fluoro-5,6,7,8-tetrahydroquinolin-4-yl]oxy}-2-methylpropyl]-2′,3′-dihydrospiro[cyclohexane-1,1′-indene]-4-carboxylic acid], for which the Ki in experiment [1] came out at 3.26 nM. In experiment [2] (Homo sapiens, NCI-H929, 48 h), the IC50 was 1160 nM.

For `C[C@@H](COc1ccnc2c1[C@H](C)CCC2)CC1Cc2c(F)c(Cl)ccc2[C@]12CC[C@@](Nc1cccc(Cl)c1)(C(=O)O)CC2` (single isomer, unassigned) [Example 749], in experiment [1], the Ki is 0.321 nM. In addition, the IC50 in experiment [2] worked out at 72.4 nM.

`Cc1cn(C[C@H](C)C[C@H]2Cc3ccccc3[C@]23CC[C@@](Nc2cccc(Cl)c2)(C(=O)O)CC3)c2c(c1=O)C(C)CCC2` (single isomer, unassigned) [Example 639]: the Ki in experiment [1] is 37.2 nM. For the same compound, in experiment [2] (Homo sapiens, NCI-H929, 48 h), the IC50 worked out at 12600 nM.

For the compound `C[C@@H]1CCCc2nccc(OCC(CC3Cc4ccccc4[C@]34CC[C@@](Nc3cccc(Cl)c3)(C(=O)O)CC4)C(F)F)c21` (single isomer, unassigned) [Example 518], in experiment [1], the Ki stood at 1260 nM. Also, the IC50 in experiment [2] is 12000 nM.

On to `C[C@@H](COc1ccnc2c1[C@H](C)CCC2)C[C@@H]1Cc2cc(F)c(F)cc2[C@]12CC[C@@](Nc1cccc(Cl)c1)(C(=O)O)CC2` [Example 776, (1r,2′R,4R)-4-(3-chloroanilino)-5′,6′-difluoro-2′-[(2R)-2-methyl-3-{[(5R)-5-methyl-5,6,7,8-tetrahydroquinolin-4-yl]oxy}propyl]-2′,3′-dihydrospiro[cyclohexane-1,1′-indene]-4-carboxylic acid], for which, in experiment [1], the Ki was 2.28 nM. Further, in experiment [2] (Homo sapiens, NCI-H929, 48 h), the IC50 amounted to 227 nM.

Turning to `C[C@@H](COc1ccnc2c1[C@@H](C)CCC2)CC1=Cc2ccccc2[C@]12CC[C@@](Nc1cccc(Cl)c1)(C(=O)O)CC2` [Example 647, (1r,4R)-4-(3-chloroanilino)-2′-[(2R)-2-methyl-3-{[(5S)-5-methyl-5,6,7,8-tetrahydroquinolin-4-yl]oxy}propyl]spiro[cyclohexane-1,1′-indene]-4-carboxylic acid], the Ki in experiment [1] came out at 9.39 nM. Moreover, the IC50 in experiment [2] (Homo sapiens, NCI-H929, 48 h) worked out at 871 nM.

`C[C@@H](COc1ccnc2c1C(F)CCC2)C[C@H]1Cc2ccccc2[C@]12CC[C@@](Nc1cccc(Cl)c1)(C(=O)O)CC2` (single isomer, unassigned) [Example 685]: the Ki in experiment [1] came to 5.8 nM. Moreover, in experiment [2], the IC50 was determined as 1460 nM.

For the compound `C[C@@H](COc1ccnc2c1[C@H](C)CCC2)CC1=Cc2cc(Cl)ccc2[C@]12CC[C@@](Nc1cccc(Cl)c1)(C(=O)O)CC2` [Example 777, (1r,4R)-5′-chloro-4-(3-chloroanilino)-2′-[(2R)-2-methyl-3-{[(5R)-5-methyl-5,6,7,8-tetrahydroquinolin-4-yl]oxy}propyl]spiro[cyclohexane-1,1′-indene]-4-carboxylic acid], the Ki in experiment [1] is 0.725 nM. The IC50 in experiment [2] (Homo sapiens, NCI-H929, 48 h) was 175 nM.

`C[C@@H](COc1ccnc2c1[C@H](C)CCC2)C[C@H]1Cc2ccccc2[C@]12CC[C@@](Nc1ccc(F)c(Br)c1)(C(=O)O)CC2` [Example 712, (1r,2′S,4S)-4-(3-bromo-4-fluoroanilino)-2′-[(2R)-2-methyl-3-{[(5R)-5-methyl-5,6,7,8-tetrahydroquinolin-4-yl]oxy}propyl]-2′,3′-dihydrospiro[cyclohexane-1,1′-indene]-4-carboxylic acid]: the Ki in experiment [1] is 0.439 nM. In addition, in experiment [2] (Homo sapiens, NCI-H929, 48 h), the IC50 was 74 nM.

For the compound `C[C@@H](COc1ccnc2c1[C@@H](C)CC[C@H]2F)C[C@H]1Cc2ccccc2[C@]12CC[C@@](Nc1cccc(Cl)c1)(C(=O)O)CC2` [Example 687, (1r,2′S,4S)-4-(3-chloroanilino)-2′-[(2R)-3-{[(5R,8S)-8-fluoro-5-methyl-5,6,7,8-tetrahydroquinolin-4-yl]oxy}-2-methylpropyl]-2′,3′-dihydrospiro[cyclohexane-1,1′-indene]-4-carboxylic acid], the Ki in experiment [1] was found to be 4.25 nM. Further, the IC50 in experiment [2] (Homo sapiens, NCI-H929, 48 h) turned out to be 600 nM.

Take `C[C@@H](COc1ccnc2c1[C@H](C)CC[C@H]2O)CC1=Cc2cc(F)ccc2[C@]12CC[C@@](Nc1cccc(Cl)c1)(C(=O)O)CC2` [Example 770, (1r,4R)-4-(3-chloroanilino)-5′-fluoro-2′-[(2R)-3-{[(5R,8R)-8-hydroxy-5-methyl-5,6,7,8-tetrahydroquinolin-4-yl]oxy}-2-methylpropyl]spiro[cyclohexane-1,1′-indene]-4-carboxylic acid]: in experiment [1], the Ki was found to be 0.35 nM. The IC50 in experiment [2] (Homo sapiens, NCI-H929, 48 h) amounted to 90.6 nM.

Take `C[C@@H](COc1ccnc2c1[C@@H](C)CC[C@@H]2O)C[C@H]1Cc2ccccc2[C@]12CC[C@@](Nc1cccc(Cl)c1)(C(=O)O)CC2` [Example 675, (1r,2′S,4S)-4-(3-chloroanilino)-2′-[(2R)-3-{[(5S,8S)-8-hydroxy-5-methyl-5,6,7,8-tetrahydroquinolin-4-yl]oxy}-2-methylpropyl]-2′,3′-dihydrospiro[cyclohexane-1,1′-indene]-4-carboxylic acid]: in experiment [1], the Ki came out at 29.9 nM. Also, the IC50 in experiment [2] (Homo sapiens, NCI-H929, 48 h) is 6980 nM.

`C[C@@H](COc1ccnc2c1[C@H](C)CCC2)C[C@@H]1Cc2ccc(F)cc2[C@]12CC[C@@](Nc1cccc(Cl)c1)(C(=O)O)CC2` [Example 766, (1r,2′R,4R)-4-(3-chloroanilino)-6′-fluoro-2′-[(2R)-2-methyl-3-{[(5R)-5-methyl-5,6,7,8-tetrahydroquinolin-4-yl]oxy}propyl]-2′,3′-dihydrospiro[cyclohexane-1,1′-indene]-4-carboxylic acid]: in experiment [1], the Ki turned out to be 2.3 nM. Also, the IC50 in experiment [2] (Homo sapiens, NCI-H929, 48 h) was 384 nM.

`C[C@@H](COc1ccnc2c1[C@H]1CCC[C@H]1C2)C[C@H]1Cc2ccccc2[C@]12CC[C@@](Nc1cccc(Cl)c1)(C(=O)O)CC2` (single isomer, unassigned) [Example 621, (1r,2′S,4S)-4-(3-chloroanilino)-2′-[(2R)-3-{[(4bR*,7aR*)-4b,5,6,7,7a,8-hexahydropentaleno[2,1-b]pyridin-4-yl]oxy}-2-methylpropyl]-2′,3′-dihydrospiro[cyclohexane-1,1′-indene]-4-carboxylic acid]: the Ki in experiment [1] was determined as 37.6 nM. In addition, the IC50 in experiment [2] is 2520 nM.

Consider `CC(O)c1ccc2c(c1)[C@]1(CC[C@@](Nc3cccc(Cl)c3)(C(=O)O)CC1)C(C[C@@H](C)COc1ccnc3c1[C@H](C)CCC3)=C2` (stereo partly drawn) [Example 857, (1r,4R)-4-(3-chloroanilino)-6′-(1-hydroxyethyl)-2′-[(2R)-2-methyl-3-{[(5R)-5-methyl-5,6,7,8-tetrahydroquinolin-4-yl]oxy}propyl]spiro[cyclohexane-1,1′-indene]-4-carboxylic acid], for which the Ki in experiment [1] was found to be 0.169 nM. Also, in experiment [2] (Homo sapiens, NCI-H929, 48 h), the IC50 amounted to 143 nM.

In the case of `CC(=O)c1ccc2c(c1)[C@]1(CC[C@@](Nc3cccc(Cl)c3)(C(=O)O)CC1)C(C[C@@H](C)COc1ccnc3c1[C@H](C)CCC3)=C2` [Example 856, (1r,4R)-6′-acetyl-4-(3-chloroanilino)-2′-[(2R)-2-methyl-3-{[(5R)-5-methyl-5,6,7,8-tetrahydroquinolin-4-yl]oxy}propyl]spiro[cyclohexane-1,1′-indene]-4-carboxylic acid], the Ki in experiment [1] amounted to 0.864 nM. For the same compound, in experiment [2] (Homo sapiens, NCI-H929, 48 h), the IC50 came to 74.8 nM.

Take `CC[C@@H]1CC[C@@H](O)c2nccc(OC[C@H](C)C[C@H]3Cc4ccccc4[C@]34CC[C@@](Nc3cccc(Cl)c3)(C(=O)O)CC4)c21` [Example 679, (1r,2′S,4S)-4-(3-chloroanilino)-2′-[(2R)-3-{[(5R,8R)-5-ethyl-8-hydroxy-5,6,7,8-tetrahydroquinolin-4-yl]oxy}-2-methylpropyl]-2′,3′-dihydrospiro[cyclohexane-1,1′-indene]-4-carboxylic acid]: the Ki in experiment [1] amounted to 2.32 nM. Further, the IC50 in experiment [2] (Homo sapiens, NCI-H929, 48 h) amounted to 199 nM.

In the case of `C[C@@H](COc1ccnc2c1CCC2F)C[C@H]1Cc2ccccc2[C@]12CC[C@@](Nc1cccc(Cl)c1)(C(=O)O)CC2` (stereo partly drawn) [Example 603, (1r,2′S,4S)-4-(3-chloroanilino)-2′-{(2R)-3-[(7-fluoro-6,7-dihydro-5H-cyclopenta[b]pyridin-4-yl)oxy]-2-methylpropyl}-2′,3′-dihydrospiro[cyclohexane-1,1′-indene]-4-carboxylic acid], the Ki in experiment [1] came to 8 nM. Besides, in experiment [2] (Homo sapiens, NCI-H929, 48 h), the IC50 stood at 1110 nM.

For `Cc1cc(OC[C@H](C)C[C@H]2Cc3ccccc3[C@]23CC[C@@](Nc2cccc(Cl)c2)(C(=O)O)CC3)c2c(n1)CCCC2C` (single isomer, unassigned) [Example 663], the Ki in experiment [1] was found to be 23.1 nM. Further, the IC50 in experiment [2] amounted to 3430 nM.

As to `C[C@@H]1Cc2nccc(OC[C@H](C)C[C@H]3Cc4ccccc4[C@]34CC[C@@](Nc3cccc(Cl)c3)(C(=O)O)CC4)c2[C@@H](C)C1` [Example 666, (1r,2′S,4S)-4-(3-chloroanilino)-2′-[(2R)-3-{[(5S,7S)-5,7-dimethyl-5,6,7,8-tetrahydroquinolin-4-yl]oxy}-2-methylpropyl]-2′,3′-dihydrospiro[cyclohexane-1,1′-indene]-4-carboxylic acid], the inhibition constant (Ki) in experiment [1] worked out at 28.7 nM. Moreover, the IC50 in experiment [2] (Homo sapiens, NCI-H929, 48 h) worked out at 1070 nM.

For orientation: Ki means a dissociation constant, usually derived from enzyme kinetics or from competition with a known ligand.
